Measured values from ChEMBL document CHEMBL1201862, “PubChem BioAssay data set” (2004).
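Each compound was tested at five concentrations against cells in 96-well plates for 48 hours. GI50 = concentration required for 50% inhibition of growth.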 Activity calls are given as the source filed them. Rule as the data show it: active = GI50 up to about 1.1 µM and inactive = higher.

How the values were obtained:
Test in all cases: NCI anticancer screen, dose series, 48 h
[1] = system: MDA-MB-435
[2] = system: HOP-62
[3] = system: CAKI-1
[4] = system: HCC 2998
[5] = system: OVCAR-8
[6] = system: Hs-578T
[7] = system: MDA-N
[8] = system: NCI-H460
[9] = system: 786-0
[10] = system: SNB-19
[11] = system: SF-295
[12] = system: SW-620
[13] = system: SK-MEL-5
[14] = system: SF-268
[15] = system: SF-539
[16] = system: SNB-75
[17] = system: SK-MEL-28
[18] = system: KM12
[19] = system: M14
[20] = system: TK-10

## NS(=O)(=O)c1ccc(NC(=O)N/N=C/c2ccccc2O)cc1
[1]
  GI50: 16.4 µM (inactive)
[2]
  GI50: 50.7 µM (inactive)
[3]
  GI50: 94.4 µM (inactive)
[4]
  GI50: 40.7 µM (inactive)
[5]
  GI50: 45.1 µM (inactive)
[6]
  GI50: 60.5 µM (inactive)
[7]
  GI50: 22.1 µM (inactive)
[8]
  GI50: 67.9 µM (inactive)
[9]
  GI50: 73.8 µM (inactive)
[10]
  GI50: 38.6 µM (inactive)
[11]
  GI50: 67.8 µM (inactive)
[12]
  GI50: 74.3 µM (inactive)
[13]
  GI50: 46.3 µM (inactive)
[14]
  GI50: 49 µM (inactive)
[15]
  GI50: 41.9 µM (inactive)
[16]
  GI50: 56.9 µM (inactive)
[17]
  GI50: 85.1 µM (inactive)
[18]
  GI50: 33.7 µM (inactive)
[19]
  GI50: 36.8 µM (inactive)
[20]
  GI50: > 100 µM (inactive)

## O=C(Nc1nncs1)NS(=O)(=O)n1c(=S)sc2ccccc21
[1]
  GI50: > 100 µM (inactive)
[2]
  GI50: > 100 µM (inactive)
[3]
  GI50: > 100 µM (inactive)
[4]
  GI50: > 100 µM (inactive)
[5]
  GI50: > 100 µM (inactive)
[6]
  GI50: > 100 µM (inactive)
[7]
  GI50: > 100 µM (inactive)
[8]
  GI50: > 100 µM (inactive)
[9]
  GI50: > 100 µM (inactive)
[10]
  GI50: > 100 µM (inactive)
[11]
  GI50: > 100 µM (inactive)
[12]
  GI50: > 100 µM (inactive)
[13]
  GI50: > 100 µM (inactive)
[14]
  GI50: > 100 µM (inactive)
[15]
  GI50: > 100 µM (inactive)
[16]
  GI50: > 100 µM (inactive)
[17]
  GI50: > 100 µM (inactive)
[18]
  GI50: > 100 µM (inactive)
[19]
  GI50: > 100 µM (inactive)
[20]
  GI50: > 100 µM (inactive)

## c1ccc(-c2nn(-c3ccccc3)[n+](-c3ccccc3)n2)cc1 [TETRAZOLIUM RED]
[1]
  GI50: 11.1 µM (inactive)
[2]
  GI50: 19.5 µM (inactive)
[3]
  GI50: > 100 µM (inactive)
[4]
  GI50: 1.53 µM (inactive)
[5]
  GI50: 49.9 µM (inactive)
[6]
  GI50: 31.6 µM (inactive)
[7]
  GI50: 12.9 µM (inactive)
[8]
  GI50: 21.1 µM (inactive)
[9]
  GI50: 14.3 µM (inactive)
[10]
  GI50: > 35.6 µM (inactive)
[11]
  GI50: > 56.1 µM (inactive)
[12]
  GI50: 16.1 µM (inactive)
[13]
  GI50: 3.49 µM (inactive)
[14]
  GI50: 14.5 µM (inactive)
[15]
  GI50: 33 µM (inactive)
[16]
  GI50: > 67.6 µM (inactive)
[17]
  GI50: 19.4 µM (inactive)
[18]
  GI50: 11.3 µM (inactive)
[19]
  GI50: 10.7 µM (inactive)
[20]
  GI50: 43 µM (inactive)

## CC(C)(C)OC(=O)CC(NC(=O)OC(C)(C)C)C(=O)N[C@@H]1CCCC[C@H]1C(=O)OCc1ccccc1 (stereo not given in full)
[1]
  GI50: 29.6 µM (inactive)
[2]
  GI50: 27.8 µM (inactive)
[3]
  GI50: 38.4 µM (inactive)
[4]
  GI50: 20.6 µM (inactive)
[5]
  GI50: 28.8 µM (inactive)
[6]
  GI50: 15.7 µM (inactive)
[7]
  GI50: 32.1 µM (inactive)
[8]
  GI50: 29.6 µM (inactive)
[9]
  GI50: 70.6 µM (inactive)
[10]
  GI50: 33.3 µM (inactive)
[11]
  GI50: 24.7 µM (inactive)
[12]
  GI50: 37.5 µM (inactive)
[13]
  GI50: 12.1 µM (inactive)
[14]
  GI50: 77.3 µM (inactive)
[15]
  GI50: 24.5 µM (inactive)
[16]
  GI50: 23.1 µM (inactive)
[17]
  GI50: > 100 µM (inactive)
[18]
  GI50: 30.1 µM (inactive)
[19]
  GI50: 36.1 µM (inactive)
[20]
  GI50: 17.8 µM (inactive)

## O=[N+]([O-])c1ccc(-[n+]2ccc3ccccc3c2)c([N+](=O)[O-])c1
[1]
  GI50: 2.5 µM (inactive)
[2]
  GI50: 8.18 µM (inactive)
[3]
  GI50: 4.14 µM (inactive)
[4]
  GI50: 13.7 µM (inactive)
[5]
  GI50: 2.47 µM (inactive)
[6]
  GI50: 7.6 µM (inactive)
[7]
  GI50: 2.33 µM (inactive)
[8]
  GI50: 10.9 µM (inactive)
[9]
  GI50: 1.73 µM (inactive)
[10]
  GI50: 18.1 µM (inactive)
[11]
  GI50: 14.8 µM (inactive)
[12]
  GI50: 1.95 µM (inactive)
[13]
  GI50: 2.64 µM (inactive)
[14]
  GI50: 3.12 µM (inactive)
[15]
  GI50: 5.21 µM (inactive)
[16]
  GI50: 3.14 µM (inactive)
[17]
  GI50: 2.83 µM (inactive)
[18]
  GI50: 12.3 µM (inactive)
[19]
  GI50: 4.55 µM (inactive)
[20]
  GI50: 1.85 µM (inactive)

## CC(NC(=O)c1ccc(Cl)c(Cl)c1)c1ccc(-c2ccccc2)cc1 (stereo not given)
[1]
  GI50: 69.5 µM (inactive)
[2]
  GI50: 22.2 µM (inactive)
[3]
  GI50: 29.9 µM (inactive)
[4]
  GI50: 43.1 µM (inactive)
[5]
  GI50: 26.3 µM (inactive)
[6]
  GI50: 27 µM (inactive)
[7]
  GI50: > 100 µM (inactive)
[8]
  GI50: 47.4 µM (inactive)
[9]
  GI50: 22.5 µM (inactive)
[10]
  GI50: 21.1 µM (inactive)
[11]
  GI50: 29.9 µM (inactive)
[12]
  GI50: 79.4 µM (inactive)
[13]
  GI50: 75.7 µM (inactive)
[14]
  GI50: 29.3 µM (inactive)
[15]
  GI50: 19.3 µM (inactive)
[16]
  GI50: 15.8 µM (inactive)
[17]
  GI50: 58.6 µM (inactive)
[18]
  GI50: 57.7 µM (inactive)
[19]
  GI50: 64.7 µM (inactive)
[20]
  GI50: 29 µM (inactive)

## CCO/C=N/C1=C(C#N)SC2=N/C(=C\c3ccccc3)C(=O)N21
[1]
  GI50: > 100 µM (inactive)
[2]
  GI50: > 100 µM (inactive)
[3]
  GI50: > 100 µM (inactive)
[4]
  GI50: > 100 µM (inactive)
[5]
  GI50: > 100 µM (inactive)
[6]
  GI50: > 100 µM (inactive)
[7]
  GI50: > 100 µM (inactive)
[8]
  GI50: > 100 µM (inactive)
[9]
  GI50: > 100 µM (inactive)
[10]
  GI50: > 100 µM (inactive)
[11]
  GI50: > 100 µM (inactive)
[12]
  GI50: > 100 µM (inactive)
[13]
  GI50: > 100 µM (inactive)
[14]
  GI50: > 100 µM (inactive)
[15]
  GI50: > 100 µM (inactive)
[16]
  GI50: > 81.3 µM (inactive)
[17]
  GI50: > 100 µM (inactive)
[18]
  GI50: > 100 µM (inactive)
[19]
  GI50: > 100 µM (inactive)
[20]
  GI50: > 89.1 µM (inactive)

## CCOP(=O)(OCC)OC1CC(n2cnc3c(N(CC)CC)ncnc32)OC1CO[Si](C)(C)C(C)(C)C (stereo not given)
[1]
  GI50: 17.3 µM (inactive)
[2]
  GI50: 19.7 µM (inactive)
[3]
  GI50: 17.5 µM (inactive)
[4]
  GI50: 23.2 µM (inactive)
[5]
  GI50: 21.1 µM (inactive)
[6]
  GI50: 22 µM (inactive)
[7]
  GI50: 18 µM (inactive)
[8]
  GI50: 15 µM (inactive)
[9]
  GI50: 16.1 µM (inactive)
[10]
  GI50: 18.2 µM (inactive)
[11]
  GI50: 16.7 µM (inactive)
[12]
  GI50: 16.2 µM (inactive)
[13]
  GI50: 17.3 µM (inactive)
[14]
  GI50: 15.3 µM (inactive)
[15]
  GI50: 19.1 µM (inactive)
[16]
  GI50: 11.1 µM (inactive)
[17]
  GI50: 18.5 µM (inactive)
[18]
  GI50: 19.7 µM (inactive)
[19]
  GI50: 18.8 µM (inactive)
[20]
  GI50: 18.3 µM (inactive)

## Cc1ccnc2nc(-c3cccc4ccccc34)cc(O)c12
[1]
  GI50: 0.0001 µM (active)
[2]
  GI50: 0.537 µM (active)
[3]
  GI50: 0.0121 µM (active)
[4]
  GI50: 0.0573 µM (active)
[5]
  GI50: 0.0203 µM (active)
[6]
  GI50: 0.0141 µM (active)
[7]
  GI50: 0.000104 µM (active)
[8]
  GI50: 0.0121 µM (active)
[9]
  GI50: 0.011 µM (active)
[10]
  GI50: 0.0147 µM (active)
[11]
  GI50: 0.0132 µM (active)
[12]
  GI50: 0.00379 µM (active)
[13]
  GI50: 0.000991 µM (active)
[14]
  GI50: 0.00867 µM (active)
[15]
  GI50: 0.0112 µM (active)
[16]
  GI50: 0.00255 µM (active)
[17]
  GI50: 0.00395 µM (active)
[18]
  GI50: 0.0183 µM (active)
[19]
  GI50: 0.00938 µM (active)
[20]
  GI50: 0.454 µM (active)
